From patent US8299302B2 (priority 2007, dated 2012)
Where two headings read alike, the source gives them in different places.

Legend:
Botrytis cinerea = assay: Botrytis test (bean) / protective; format: in vivo; details: 48 h, read-out: efficacy
Description: (§1) To produce a suitable preparation of active compound, 1 part by weight of active compound is mixed with the stated amounts of solvent and emulsifier, and the concentrate is diluted with water to the desired concentration.
To test for protective activity, young plants are sprayed with the active compound preparation at the stated application rate. After the spray coating has dried on, 2 small pieces of agar overgrown with Botrytis cinerea are placed on each leaf. The inoculated plants are then placed in a darkened chamber at about 20° C. and 100% relative atmospheric humidity.
Two days after the inoculation the size of the infected spots on the leaves is evaluated. 0% means an efficacy which corresponds to that of the control, whereas an efficacy of 100% means that no infection is observed.

Podosphaera leucotricha = assay: Podosphaera test (apple) / protective; format: in vivo; details: 240 h, read-out: efficacy
Description: as §1
(§2) To test for protective activity, young plants are sprayed with the active compound preparation at the stated application rate. After the spray coating has dried on, the plants are inoculated with an aqueous spore suspension of the apple mildew pathogen Podosphaera leucotricha. The plants are then placed in a greenhouse at about 23° C. and a relative atmospheric humidity of about 70%.
(§3) Evaluation is carried out 10 days after the inoculation. 0% means an efficacy which corresponds to that of the control, whereas an efficacy of 100% means that no infection is observed.

Puccinia recondita = assay: Puccinia test (wheat) / protective; format: in vivo; details: 240 h, read-out: efficacy
Description: as §1
To test for protective activity, young plants are sprayed with the active compound preparation at the stated application rate. After the spray coating has dried on, the plants are sprayed with a conidia suspension of Puccinia recondita. The plants remain in an incubation cabin at 20° C. and 100% relative atmospheric humidity for 48 hours.
The plants are then placed in a greenhouse at a temperature of about 20° C. and a relative atmospheric humidity of 80% to promote the development of rust pustules.
as §3

Uromyces appendiculatus = assay: Uromyces test (bean) / protective; format: in vivo; details: 240 h, read-out: efficacy
Description: as §1
To test for protective activity, young plants are sprayed with the active compound preparation at the stated application rate. After the spray coating has dried on, the plants are inoculated with an aqueous spore suspension of the bean rust pathogen Uromyces appendiculatus and then remain in an incubation cabin at about 20° C. and 100% relative atmospheric humidity for 1 day.
The plants are then placed in a greenhouse at about 21° C. and a relative atmospheric humidity of about 90%.
as §3

Sphaerotheca fuliginea = assay: Sphaerotheca test (cucumber) / protective; format: in vivo; details: Podosphaera fuliginea, 168 h, read-out: efficacy
Description: as §1
as §2, with “dried,” for “dried on,”, “Sphaerotheca fuliginea.” for “the apple mildew pathogen Podosphaera leucotricha.”
Evaluation is carried out 7 days after the inoculation. 0% means an efficacy which corresponds to that of the control, whereas an efficacy of 100% means that no infection is observed.

[1] = bean plants, protective spray, active compound concentration 250 ppm, evaluation two days after inoculation
[2] = apple plants, protective spray, active compound concentration 100 ppm, evaluation 10 days after inoculation
[3] = wheat plants, protective spray, active compound concentration 1000 ppm, evaluation 10 days after inoculation
[4] = bean plants, protective spray, active compound concentration 10 ppm, evaluation 10 days after inoculation
[5] = cucumber plants, protective spray, active compound concentration 100 ppm, evaluation 7 days after inoculation

Row | log P (pH 2.3) | logP (logP (acidic, pH 2.3); pH 2.3, log P (pH 2.3), pH 2.3) | logP (logP (acidic, pH 2.3); pH 2.3, logP acidic, acidic) | Molecule | pest or weed control at 250 ppm (Botrytis cinerea; [1]) [%] | pest or weed control at 100 ppm (Podosphaera leucotricha; [2]) [%] | pest or weed control at 1000 ppm (Puccinia recondita; [3]) [%] | pest or weed control at 10 ppm (Uromyces appendiculatus; [4]) [%] | pest or weed control at 100 ppm (Sphaerotheca fuliginea; [5]) [%] | pest or weed control at 250 ppm (Botrytis cinerea) [%] | pest or weed control at 100 ppm (Podosphaera leucotricha) [%] | pest or weed control at 1000 ppm (Puccinia recondita) [%] | logP (logP (acidic, pH 2.3); pH 2.3) | pest or weed control at 10 ppm (Uromyces appendiculatus) [%] | pest or weed control at 100 ppm (Sphaerotheca fuliginea) [%]
1 | 4.86 | – | – | 4-(4-Bromophenoxy)-2,5-dimethylnitrobenzene | – | – | – | – | – | – | – | – | – | – | –
2 | 6.69 | – | – | 4-(4-Cyclohexylphenoxy)-2,5-dimethylnitrobenzene | – | – | – | – | – | – | – | – | – | – | –
3 | – | 2.57 | 2.47 | CCN(C)C=Nc1cc(C)c(Oc2ccc(-c3ccc(OC)cc3)cc2)cc1C [Compound 5, N-ethyl-N′-{4-[(4′-methoxybiphenyl-4-yl)oxy]-2,5-dimethylphenyl}-N-methylimidoformamide] | ≥ 70 | ≥ 70 | ≥ 70 | ≥ 70 | ≥ 70 | – | – | – | – | – | –
4 | – | – | 2.67 | CCN(C)C=Nc1cc(C)c(Oc2ccc(-c3ccc(SC)cc3)cc2)cc1C [Compound 6, N′-(2,5-dimethyl-4-{[4′-(methylthio)biphenyl-4-yl]oxy}phenyl)-N-ethyl-N-methylimidoformamide] | ≥ 70 | ≥ 70 | ≥ 70 | ≥ 70 | ≥ 70 | – | – | – | – | – | –
5 | – | – | – | CCN(C)C=Nc1cc(C)c(Oc2ccc(-c3ccc(F)cc3)cc2)cc1C [Compound 11] | – | – | – | – | – | ≥ 70 | ≥ 70 | ≥ 70 | 2.69 | ≥ 70 | ≥ 70
6 | – | – | – | CCc1ccccc1-c1ccc(Oc2cc(C)c(N=CN(C)CC)cc2C)cc1 [Compound 13] | – | – | – | – | – | ≥ 70 | ≥ 70 | ≥ 70 | 2.89 | ≥ 70 | ≥ 70
7 | – | – | – | CCN(C)C=Nc1cc(C)c(Oc2ccc(-c3ccccc3C)cc2)cc1C [Compound 16] | – | – | – | – | – | ≥ 70 | ≥ 70 | ≥ 70 | 2.75 | ≥ 70 | ≥ 70
8 | – | – | – | CCN(C)C=Nc1cc(C)c(Oc2ccc(-c3ccccc3F)cc2)cc1C [Compound 17] | – | – | – | – | – | ≥ 70 | ≥ 70 | ≥ 70 | 2.56 | ≥ 70 | ≥ 70
9 | – | – | – | CCN(C)C=Nc1cc(C)c(Oc2ccc(-c3ccccc3C(C)=O)cc2)cc1C [Compound 18] | – | – | – | – | – | ≥ 70 | ≥ 70 | ≥ 70 | 2.29 | ≥ 70 | ≥ 70
10 | – | – | 2.67 | CCN(C)C=Nc1cc(C)c(Oc2ccc(-c3ccccc3Cl)cc2)cc1C [Compound 27, N′-{4-[(2′-chlorobiphenyl-4-yl)oxy]-2,5-dimethylphenyl}-N-ethyl-N-methylimidoformamide] | ≥ 70 | ≥ 70 | ≥ 70 | ≥ 70 | ≥ 70 | – | – | – | – | – | –
11 | – | – | 2.87 | CCN(C)C=Nc1cc(C)c(Oc2ccc(C3CCCC3)cc2)cc1C [Compound 32, N′-[4-(4-cyclopentylphenoxy)-2,5-dimethylphenyl]-N-ethyl-N-methylimidoformamide] | ≥ 70 | ≥ 70 | ≥ 70 | ≥ 70 | ≥ 70 | – | – | – | – | – | –
12 | – | – | 3 | Cc1cc(Oc2ccc(C3CCCC3)cc2)c(C)cc1N=CN(C)C(C)C [Compound 33, N′-[4-(4-cyclopentylphenoxy)-2,5-dimethylphenyl]-N-isopropyl-N-methylimidoformamide] | ≥ 70 | ≥ 70 | ≥ 70 | ≥ 70 | ≥ 70 | – | – | – | – | – | –
13 | – | 2.99 | 2.99 | CCN(C)C=Nc1cc(C)c(Oc2ccc(C3CCCCC3)cc2)cc1C [Compound 38, N′-{4-[4-cyclohexylphenoxy]-2,5-dimethylphenyl}-N-ethyl-N-methylimidoformamide] | ≥ 70 | ≥ 70 | ≥ 70 | ≥ 70 | ≥ 70 | – | – | – | – | – | –
14 | – | – | 3.46 | Cc1cc(Oc2ccc(C3CCCCC3)cc2)c(C)cc1/N=C/N1CCCCC1 [Compound 41, 4-(4-cyclohexylphenoxy)-2,5-dimethyl-N-[(1E)-piperidin-1-ylmethylene]aniline] | ≥ 70 | ≥ 70 | ≥ 70 | ≥ 70 | ≥ 70 | – | – | – | – | – | –
